Drawing on patent publication US9650395B2, “Antibacterial compounds and methods for use” (PTC Therapeutics, Inc., priority 2011, dated 2017), this text covers MIC for 21 molecules.

Each structure is given as a SMILES string. In brackets after ≈: the same amount, converted by molar mass. Where two headings read alike, the source gives them in different places.

Experiment [1] has as its system super sensitive Gram-negative Escherichia coli (E. coli) BAS849. The experiment in a line: Antibacterial activity, microbroth dilution MIC, E. coli BAS849. In kind it is cell-based. The conditions noted are these: Escherichia coli, read-out: MIC, BAS849. Background: In broth dilution the organism is exposed to a series of concentrations in liquid medium.
For experiment [2], the system named is control Gram-negative E. coli 25922 strain. The experiment in a line: Antibacterial activity, microbroth dilution MIC, E. coli 25922. It is filed as cell-based, Escherichia coli. The conditions noted are these: Escherichia coli; E. coli 25922, microbroth dilution; read-out: MIC, 25922.
Experiment [3] has as its system Gram-positive Staphylococcus aureus (S. aureus) 29213. The experiment in a line: Antibacterial activity, microbroth dilution MIC, S. aureus 29213. It is filed as cell-based. The conditions noted are these: Staphylococcus aureus; S. aureus 29213, microbroth dilution; read-out: MIC, 29213.
The test system of experiment [4] is quinolone resistant E. coli LZ3111. The experiment in a line: Antibacterial activity, MIC, quinolone resistant E. coli LZ3111. It is filed as cell-based, Escherichia coli. The note with it: Escherichia coli, read-out: MIC, LZ3111. The source says:
The antibacterial activity from a microbroth dilution method may be presented as the minimum inhibitory concentration (MIC in […]). The MIC value is the lowest concentration of a drug which prevents macroscopically visible bacterial growth under test conditions.
Mutations in these regions are known to confer a high level resistance to the quinolone class of antibiotics.

[5] abbreviates: E. coli BAS849, microbroth dilution.

One may read the MIC as the lowest concentration that inhibits growth of the organism. Regarding `CCc1cc(C(=O)O)c(=O)[nH]c1-c1ccc(N2CCC(CNCc3ccccc3Cl)C2)cc1` (stereo not drawn) [Cpd 234, 6-[4-(3-{[(2-chlorobenzyl)amino]methyl}pyrrolidin-1-yl)phenyl]-5-ethyl-2-oxo-1,2-dihydropyridine-3-carboxylic acid], the MIC in experiment [1] (setting [5]) is less than 1 µg/mL; in experiment [2], 1 to 3.5 µg/mL (≈ 2.15 to 7.51 µM); in experiment [3], 12.5 to 150 µg/mL (≈ 26.8 to 322 µM); in experiment [4] it was 12.5 to 150 µg/mL (≈ 26.8 to 322 µM).
As to `CCc1c(-c2ccc(N3C[C@H]4C[C@@H](N(Cc5ccccc5)Cc5ccccc5)C[C@H]4C3)cc2)[nH]c(=O)c(C(=O)O)c1O` [Cpd 251, 6-{4-[(3aR,5r,6aS)-5-(dibenzylamino)hexahydrocyclopenta[c]pyrrol-2(1H)-yl]phenyl}-5-ethyl-4-hydroxy-2-oxo-1,2-dihydropyridine-3-carboxylic acid], the MIC in experiment [1] (setting [5]), in experiment [2], in experiment [3] and in experiment [4] was 12.5 to 150 µg/mL (≈ 22.2 to 266 µM) in each case.
With `CCc1cc(C(=O)O)c(=O)[nH]c1-c1ccc(N2C[C@H]3C[C@@H](N)[C@H]3C2)cc1` [Cpd 211, 6-{4-[(1S,5R,6R)-6-amino-3-azabicyclo[3.2.0]hept-3-yl]phenyl}-5-ethyl-2-oxo-1,2-dihydropyridine-3-carboxylic acid], the MIC in experiment [1] (setting [5]) is less than 1 µg/mL; in experiment [2], 3.5 to 12.5 µg/mL (≈ 9.9 to 35.4 µM); in experiment [3], 12.5 to 150 µg/mL (≈ 35.4 to 424 µM); in experiment [4], 12.5 to 150 µg/mL (≈ 35.4 to 424 µM).
With `CCc1cc(C(=O)O)c(=O)[nH]c1-c1ccc(N2C[C@H]3CC[C@@H](N(C)C)[C@H]3C2)cc1.Cl` [Cpd 198, 6-{4-[(3aR,4R,6aS)-4-(dimethylamino)hexahydrocyclopenta[c]pyrrol-2(1H)-yl]phenyl}-5-ethyl-2-oxo-1,2-dihydropyridine-3-carboxylic acid hydrochloride], the MIC in experiment [1] (setting [5]) is less than 1 µg/mL; in experiment [2], 3.5 to 12.5 µg/mL; in experiment [3] it was 12.5 to 150 µg/mL; in experiment [4], 12.5 to 150 µg/mL.
Regarding `CCc1cc(C(=O)O)c(=O)[nH]c1-c1ccc(N2C[C@H]3CCC[C@@H](N(Cc4ccccc4)Cc4ccccc4)[C@H]3C2)cc1.O=C(O)C(F)(F)F` [Cpd 196, 6-{4-[(3aR,4R,7aS)-4-(dibenzylamino)octahydro-2H-isoindol-2-yl]phenyl}-5-ethyl-2-oxo-1,2-dihydropyridine-3-carboxylic acid trifluoroacetate], the MIC in experiment [1], in experiment [2], in experiment [3] and in experiment [4] was 12.5 to 150 µg/mL each time.
Turning to `CCc1cc(C(=O)O)c(=O)[nH]c1-c1ccc(N2CCC(OC)CC2)cc1` [Cpd 224, 5-ethyl-6-[4-(4-methoxypiperidin-1-yl)phenyl]-2-oxo-1,2-dihydropyridine-3-carboxylic acid], the MIC was less than 1 µg/mL in experiment [1] (setting [5]), 12.5 to 150 µg/mL (≈ 35.1 to 421 µM) in experiment [2], 12.5 to 150 µg/mL (≈ 35.1 to 421 µM) in experiment [3] and 12.5 to 150 µg/mL (≈ 35.1 to 421 µM) in experiment [4].
In the case of `CCc1c(-c2ccc(N3CCNCC3)cn2)[nH]c(=O)c(C(=O)O)c1O` [Cpd 113, 5-ethyl-4-hydroxy-2-oxo-6-[5-(piperazin-1-yl)pyridin-2-yl]-1,2-dihydropyridine-3-carboxylic acid], the minimal inhibitory concentration (MIC) in experiment [1] (setting [5]) was 3.5 to 12.5 µg/mL (≈ 10.2 to 36.3 µM); in experiment [2] it was 3.5 to 12.5 µg/mL (≈ 10.2 to 36.3 µM); in experiment [3], 12.5 to 150 µg/mL (≈ 36.3 to 436 µM); in experiment [4] it was 12.5 to 150 µg/mL (≈ 36.3 to 436 µM).
Take `CCc1cc(C(=O)O)c(=O)[nH]c1-c1ccc(N2C[C@H]3CCN[C@H]3C2)cc1.O=C(O)C(F)(F)F` [Cpd 190, 5-ethyl-6-{4-[(3aR,6aR)-hexahydropyrrolo[3,4-b]pyrrol-5(1H)-yl]phenyl}-2-oxo-1,2-dihydropyridine-3-carboxylic acid trifluoroacetate]: the MIC in experiment [1] fell in the range of 1 to 3.5 µg/mL; in experiment [2], 12.5 to 150 µg/mL; in experiment [3] it was 12.5 to 150 µg/mL; in experiment [4], 12.5 to 150 µg/mL.
As to `CCc1cc(C(=O)O)c(=O)[nH]c1-c1ccc(N2CCC(CN)C2)cc1.O=C(O)C(F)(F)F` (stereo not drawn) [Cpd 188, 6-{4-[3-(aminomethyl)pyrrolidin-1-yl]phenyl}-5-ethyl-2-oxo-1,2-dihydropyridine-3-carboxylic acid trifluoroacetate], the MIC in experiment [1] was less than 1 µg/mL; in experiment [2], 3.5 to 12.5 µg/mL; in experiment [3], 12.5 to 150 µg/mL; in experiment [4], 12.5 to 150 µg/mL.
As to `CCc1c(-c2ccc(N3C[C@H]4C[C@@H](N)C[C@H]4C3)cc2)[nH]c(=O)c(C(=O)O)c1O` [Cpd 248, 6-{4-[(3aR,5r,6aS)-5-aminohexahydrocyclopenta[c]pyrrol-2(1H)-yl]phenyl}-5-ethyl-4-hydroxy-2-oxo-1,2-dihydropyridine-3-carboxylic acid], the MIC in experiment [1] (setting [5]) was in the range of 1 to 3.5 µg/mL (≈ 2.61 to 9.13 µM); in experiment [2], 12.5 to 150 µg/mL (≈ 32.6 to 391 µM); in experiment [3], 12.5 to 150 µg/mL (≈ 32.6 to 391 µM); in experiment [4] it was 12.5 to 150 µg/mL (≈ 32.6 to 391 µM).
Take `CCc1cc(C(=O)O)c(=O)[nH]c1-c1ccc(N2CCC(CN3CCCC3)C2)cc1` (stereo not drawn) [Cpd 191, 5-ethyl-2-oxo-6-{4-[3-(pyrrolidin-1-ylmethyl)pyrrolidin-1-yl]phenyl}-1,2-dihydropyridine-3-carboxylic acid]: the MIC was less than 1 µg/mL in experiment [1] (setting [5]), 1 to 3.5 µg/mL (≈ 2.53 to 8.85 µM) in experiment [2], 12.5 to 150 µg/mL (≈ 31.6 to 379 µM) in experiment [3] and 12.5 to 150 µg/mL (≈ 31.6 to 379 µM) in experiment [4].
With `CCc1c(-c2ccc(N3CCC(CN(C)Cc4ccccc4)C3)cc2)[nH]c(=O)c(C(=O)O)c1O` (stereo not drawn) [Cpd 255, 6-[4-(3-{[benzyl(methyl)amino]methyl}pyrrolidin-1-yl)phenyl]-5-ethyl-4-hydroxy-2-oxo-1,2-dihydropyridine-3-carboxylic acid], the MIC fell in the range of 3.5 to 12.5 µg/mL (≈ 7.58 to 27.1 µM) in experiment [1] (setting [5]), 12.5 to 150 µg/mL (≈ 27.1 to 325 µM) in experiment [2], 3.5 to 12.5 µg/mL (≈ 7.58 to 27.1 µM) in experiment [3] and 12.5 to 150 µg/mL (≈ 27.1 to 325 µM) in experiment [4].
In the case of `CCc1cc(C(=O)O)c(=O)[nH]c1-c1ccc(N2C[C@H]3CC[C@H](N)[C@H]3C2)cc1.O=C(O)C(F)(F)F` [Cpd 204, 6-{4-[(3aR,4S,6aS)-4-aminohexahydrocyclopenta[c]pyrrol-2(1H)-yl]phenyl}-5-ethyl-2-oxo-1,2-dihydropyridine-3-carboxylic acid trifluoroacetate], the MIC in experiment [1] was 1 to 3.5 µg/mL; in experiment [2], 12.5 to 150 µg/mL; in experiment [3], 12.5 to 150 µg/mL; in experiment [4], 12.5 to 150 µg/mL.
Turning to `CCc1cc(C(=O)O)c(=O)[nH]c1-c1ccc(N2CCC(CNCc3ccccc3F)C2)cc1` (stereo not drawn) [Cpd 240, 5-ethyl-6-[4-(3-{[(2-fluorobenzyl)amino]methyl}pyrrolidin-1-yl)phenyl]-2-oxo-1,2-dihydropyridine-3-carboxylic acid], the MIC in experiment [1] (setting [5]) is less than 1 µg/mL; in experiment [2] it was 1 to 3.5 µg/mL (≈ 2.22 to 7.79 µM); in experiment [3], 12.5 to 150 µg/mL (≈ 27.8 to 334 µM); in experiment [4], 12.5 to 150 µg/mL (≈ 27.8 to 334 µM).
For the molecule `CCc1cc(C(=O)O)c(=O)[nH]c1-c1ccc(N2C[C@H]3CC[C@H](N=[N+]=[N-])[C@H]3C2)cc1.O=C(O)C(F)(F)F` [Cpd 245, 6-{4-[(3aR,4S,6aS)-4-azidohexahydrocyclopenta[c]pyrrol-2(1H)-yl]phenyl}-5-ethyl-2-oxo-1,2-dihydropyridine-3-carboxylic acid trifluoroacetate], the MIC in experiment [1] is less than 1 µg/mL; in experiment [2], 3.5 to 12.5 µg/mL; in experiment [3], 3.5 to 12.5 µg/mL; in experiment [4] it was 12.5 to 150 µg/mL.
Regarding `CCc1cc(C(=O)O)c(=O)[nH]c1-c1ccc(N2CCC(N)CC2)cc1` [Cpd 228, 6-[4-(4-aminopiperidin-1-yl)phenyl]-5-ethyl-2-oxo-1,2-dihydropyridine-3-carboxylic acid], the MIC in experiment [1] (setting [5]), in experiment [2], in experiment [3] and in experiment [4] was 12.5 to 150 µg/mL (≈ 36.6 to 439 µM) throughout.
As for `CCc1c(-c2ccc(N(C)C)cc2F)[nH]c(=O)c(C(=O)O)c1O` [Cpd 55, 6-[4-(dimethylamino)-2-fluorophenyl]-5-ethyl-4-hydroxy-2-oxo-1,2-dihydropyridine-3-carboxylic acid], the MIC in experiment [1] (setting [5]) was less than 1 µg/mL; in experiment [2], 12.5 to 150 µg/mL (≈ 39 to 468 µM); in experiment [3] it was 3.5 to 12.5 µg/mL (≈ 10.9 to 39 µM); in experiment [4] it was 12.5 to 150 µg/mL (≈ 39 to 468 µM).
For `CCc1cc(C(=O)O)c(=O)[nH]c1-c1ccc(N2CCC(CNCc3ccccn3)C2)cc1` (stereo not drawn) [Cpd 243, 5-ethyl-2-oxo-6-[4-(3-{[(pyridin-2-ylmethyl)amino]methyl}pyrrolidin-1-yl)phenyl]-1,2-dihydropyridine-3-carboxylic acid], the MIC in experiment [1] (setting [5]) was less than 1 µg/mL; in experiment [2], 1 to 3.5 µg/mL (≈ 2.31 to 8.09 µM); in experiment [3], 12.5 to 150 µg/mL (≈ 28.9 to 347 µM); in experiment [4] it was 12.5 to 150 µg/mL (≈ 28.9 to 347 µM).
For the molecule `CCc1cc(C(=O)O)c(=O)[nH]c1-c1ccc(N2C[C@H]3CCC[C@@H](N(C)C)[C@H]3C2)cc1.Cl` [Cpd 193, 6-{4-[(3aR,4R,7aS)-4-(dimethylamino)octahydro-2H-isoindol-2-yl]phenyl}-5-ethyl-2-oxo-1,2-dihydropyridine-3-carboxylic acid hydrochloride], the MIC fell in the range of 1 to 3.5 µg/mL in experiment [1] (setting [5]), 12.5 to 150 µg/mL in experiment [2], 12.5 to 150 µg/mL in experiment [3] and 12.5 to 150 µg/mL in experiment [4].
Take `CCc1cc(C(=O)O)c(=O)[nH]c1-c1ccc(CN2CCC(N(C)C)C2)n1C` (stereo not drawn) [Cpd 353, 6-(5-((3-(dimethylamino)pyrrolidin-1-yl)methyl)-1-methyl-1H-pyrrol-2-yl)-5-ethyl-2-oxo-1,2-dihydropyridine-3-carboxylic acid]: the MIC in experiment [1] (setting [5]), in experiment [2], in experiment [3] and in experiment [4] was 12.5 to 150 µg/mL (≈ 33.6 to 403 µM) in each case.
Turning to `CCc1cc(C(=O)O)c(=O)[nH]c1-c1ccc(N2CCC(C)(CN)C2)cc1` (stereo not drawn) [Cpd 235, 6-{4-[3-(aminomethyl)-3-methylpyrrolidin-1-yl]phenyl}-5-ethyl-2-oxo-1,2-dihydropyridine-3-carboxylic acid], the MIC in experiment [1] (setting [5]) was in the range of 1 to 3.5 µg/mL (≈ 2.81 to 9.85 µM); in experiment [2], 12.5 to 150 µg/mL (≈ 35.2 to 422 µM); in experiment [3], 12.5 to 150 µg/mL (≈ 35.2 to 422 µM); in experiment [4], 12.5 to 150 µg/mL (≈ 35.2 to 422 µM).
